The source made the active and inactive calls. The rule behind the calls is not given here.
Species on record: Homo sapiens
Assay: Cytotoxicity against human Kato 3 cells
Format: functional, cell-based

| SMILES | Activity |
| --- | --- |
| CC1(C)CC[C@]2(C(=O)O[C@@H]3OC[C@H](O)[C@H](O)[C@H]3O)CC[C@]3(C)C(=CC[C@@H]4[C@@]5(C)CC(=O)[C@H](O[C@@H]6O[C@H](CO)[C@@H](O)[C@H](O)[C@H]6O)[C@@](C)(CO)[C@@H]5[C@H](O)C[C@]43C)[C@@H]2C1 | inactive |
| CC1(C)CC[C@]2(C(=O)O[C@@H]3OC[C@H](O)[C@H](O)[C@H]3O)CC[C@]3(C)C(=CC[C@@H]4[C@@]5(C)C[C@H](O)[C@H](O)[C@@](C)(CO)[C@@H]5[C@H](O)C[C@]43C)[C@@H]2C1 | inactive |
| CC1(C)CC[C@]2(C(=O)O[C@@H]3OC[C@H](O)[C@H](O)[C@H]3O)CC[C@]3(C)C(=CC[C@@H]4[C@@]5(C)CC(=O)[C@H](O)[C@@](C)(CO)[C@@H]5[C@H](O)C[C@]43C)[C@@H]2C1 | inactive |
| C[C@@H]1O[C@@H](O[C@H]2[C@H](OC(=O)[C@]34CCC(C)(C)C[C@H]3C3=CC[C@@H]5[C@@]6(C)C[C@H](O)[C@H](O)[C@@](C)(CO)[C@@H]6[C@H](O)C[C@@]5(C)[C@]3(C)CC4)OC[C@H](O)[C@@H]2O)[C@H](O)[C@H](O)[C@H]1O | inactive |

Reference: ChEMBL document CHEMBL1155650, “New oleanene triterpenoid saponins from Madhuca longifolia” (J Nat Prod, 2000)
